Test results as given in PMC7035247 (Scientific Reports, 2020).
Where two headings read alike, the source gives them in different places.

How the values were obtained:
[1] = molecular target: WL-Pgp (Trp-less Pgp, all eleven Trps substituted) (Mus musculus, UniProt P21447, W1104Y/W132L/W158Y/W208P/W228M/W311Y/W44H/W694I/W704I/W799Y/W851P); assay: biochemical
Description: (§1) The rate of ATP hydrolysis was measured at 37 °C, by an ATPase-linked enzyme assay, in the absence and presence of drugs, and statistical analysis were done as described[74],[79]. For biophysical studies, Pgp was exchanged into SEC buffer (20 mM HEPES pH 7.4, 150 mM NaCl, 10% glycerol, 0.05% DDM,) by size exclusion chromatography (SEC) on Superdex 200 (1 × 30 cm column)[85].

[2] = molecular target: WT Pgp (codon-optimized mouse mdr1a Pgp) (Mus musculus, UniProt P21447); assay: biochemical
WT Pgp (codon-optimized mouse mdr1a Pgp), sequence (P21447 whole entry): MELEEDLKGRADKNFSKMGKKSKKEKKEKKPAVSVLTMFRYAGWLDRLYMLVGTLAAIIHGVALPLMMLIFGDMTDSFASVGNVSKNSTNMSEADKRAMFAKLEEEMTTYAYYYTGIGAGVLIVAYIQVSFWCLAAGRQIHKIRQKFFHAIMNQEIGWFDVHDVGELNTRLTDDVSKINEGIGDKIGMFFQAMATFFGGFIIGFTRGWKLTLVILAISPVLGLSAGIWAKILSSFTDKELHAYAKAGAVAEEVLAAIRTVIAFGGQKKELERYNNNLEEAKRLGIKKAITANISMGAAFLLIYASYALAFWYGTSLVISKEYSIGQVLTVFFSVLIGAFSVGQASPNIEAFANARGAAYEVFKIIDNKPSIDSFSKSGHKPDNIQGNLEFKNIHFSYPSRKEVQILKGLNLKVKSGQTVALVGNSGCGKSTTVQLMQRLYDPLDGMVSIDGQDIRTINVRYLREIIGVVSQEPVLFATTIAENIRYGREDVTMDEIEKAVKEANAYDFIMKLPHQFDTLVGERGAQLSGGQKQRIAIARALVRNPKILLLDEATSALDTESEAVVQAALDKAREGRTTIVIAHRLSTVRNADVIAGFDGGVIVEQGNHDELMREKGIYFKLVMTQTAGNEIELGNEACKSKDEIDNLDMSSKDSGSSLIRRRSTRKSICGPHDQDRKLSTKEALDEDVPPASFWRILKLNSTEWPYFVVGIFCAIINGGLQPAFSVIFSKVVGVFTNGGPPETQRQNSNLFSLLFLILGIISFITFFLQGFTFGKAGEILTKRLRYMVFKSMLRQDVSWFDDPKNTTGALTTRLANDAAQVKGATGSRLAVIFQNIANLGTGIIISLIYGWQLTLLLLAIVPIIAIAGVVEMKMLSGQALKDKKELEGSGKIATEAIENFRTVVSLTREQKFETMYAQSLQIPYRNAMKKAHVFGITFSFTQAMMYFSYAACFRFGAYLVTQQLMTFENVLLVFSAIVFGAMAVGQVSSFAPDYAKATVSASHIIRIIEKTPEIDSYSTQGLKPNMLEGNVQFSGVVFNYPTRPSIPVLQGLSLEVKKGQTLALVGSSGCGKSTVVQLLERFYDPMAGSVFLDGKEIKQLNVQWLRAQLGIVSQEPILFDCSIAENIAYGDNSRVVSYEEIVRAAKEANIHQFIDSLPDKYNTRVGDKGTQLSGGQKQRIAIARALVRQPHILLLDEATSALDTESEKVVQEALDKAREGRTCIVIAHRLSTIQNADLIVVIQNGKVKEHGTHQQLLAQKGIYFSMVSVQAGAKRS
Description: as §1

[3] = molecular target: T1, W(3Cyto) Pgp (W44H/W132L/W208P/W228M/W311Y/W694I/W704I/W851P) (Mus musculus, UniProt P21447, W132L/W208P/W228M/W311Y/W44H/W694I/W704I/W851P); assay: biochemical
T1 sequence (P21447 whole entry W44H/W132L/W208P/W228M/W311Y/W694I/W704I/W851P): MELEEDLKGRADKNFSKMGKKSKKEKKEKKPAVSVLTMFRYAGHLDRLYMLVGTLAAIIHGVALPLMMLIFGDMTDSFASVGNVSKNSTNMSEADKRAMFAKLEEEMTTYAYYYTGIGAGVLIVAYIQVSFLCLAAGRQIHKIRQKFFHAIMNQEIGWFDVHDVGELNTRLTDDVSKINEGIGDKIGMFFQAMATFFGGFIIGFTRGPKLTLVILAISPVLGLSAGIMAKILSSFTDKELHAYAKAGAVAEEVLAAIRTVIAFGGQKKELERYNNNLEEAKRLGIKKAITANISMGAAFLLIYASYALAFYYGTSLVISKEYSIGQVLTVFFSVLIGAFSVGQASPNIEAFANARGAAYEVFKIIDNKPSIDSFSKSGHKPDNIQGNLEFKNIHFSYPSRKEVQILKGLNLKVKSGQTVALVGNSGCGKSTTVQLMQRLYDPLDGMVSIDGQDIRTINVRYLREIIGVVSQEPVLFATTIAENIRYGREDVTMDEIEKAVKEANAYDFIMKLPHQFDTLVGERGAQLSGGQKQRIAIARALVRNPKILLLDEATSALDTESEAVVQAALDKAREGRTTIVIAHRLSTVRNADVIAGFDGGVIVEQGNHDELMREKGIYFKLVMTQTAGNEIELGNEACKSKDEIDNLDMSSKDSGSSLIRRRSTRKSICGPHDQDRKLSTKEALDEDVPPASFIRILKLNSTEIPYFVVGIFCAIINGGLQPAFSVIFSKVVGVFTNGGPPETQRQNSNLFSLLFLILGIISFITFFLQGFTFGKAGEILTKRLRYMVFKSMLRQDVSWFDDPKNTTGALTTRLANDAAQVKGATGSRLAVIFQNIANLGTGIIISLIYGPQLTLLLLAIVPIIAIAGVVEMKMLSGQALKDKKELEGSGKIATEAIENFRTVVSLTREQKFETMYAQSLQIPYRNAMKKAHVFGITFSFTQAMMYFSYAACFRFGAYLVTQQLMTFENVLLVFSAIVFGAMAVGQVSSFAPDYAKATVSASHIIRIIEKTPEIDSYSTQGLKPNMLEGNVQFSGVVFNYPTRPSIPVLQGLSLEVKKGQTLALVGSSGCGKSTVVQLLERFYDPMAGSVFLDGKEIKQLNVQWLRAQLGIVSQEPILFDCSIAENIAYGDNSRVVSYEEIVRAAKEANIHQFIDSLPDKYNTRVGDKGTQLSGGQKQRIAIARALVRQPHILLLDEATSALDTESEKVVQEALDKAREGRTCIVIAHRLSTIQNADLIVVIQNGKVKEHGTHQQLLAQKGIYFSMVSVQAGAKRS
Description: (§2) The rate of ATP hydrolysis was measured at 37 °C, by an ATPase-linked enzyme assay[87], in the absence and presence of drugs, and statistical analysis were done as described[74],[79].

[4] = molecular target: T1, W(3Cyto) Pgp (W44H/W132L/W208P/W228M/W311Y/W694I/W704I/W851P); settings: read-out: Km(MgATP), in the presence of 30 μM verapamil
Description: as §2

[5] = test system: S. cerevisiae JPY201 expressing Pgp variants; settings: 30 µM doxorubicin
Description: Cultures of the transformants were screened again for mating efficiency. […] DNA from the 72 unique mutants was again re-transformed into JPY201 yeast cells for more detailed in vivo functional analysis of fungicidal drug resistance and yeast mating efficiency, which were performed essentially as previously described[74],[79],[84].

[6] = EC50 (concentration required for 50% stimulation of the ATPase activity), WT Pgp, mean ± SD

WL-Pgp (Trp-less Pgp, all eleven Trps substituted), sequence (P21447 whole entry W44H/W132L/W158Y/W208P/W228M/W311Y/W694I/W704I/W799Y/W851P/W1104Y): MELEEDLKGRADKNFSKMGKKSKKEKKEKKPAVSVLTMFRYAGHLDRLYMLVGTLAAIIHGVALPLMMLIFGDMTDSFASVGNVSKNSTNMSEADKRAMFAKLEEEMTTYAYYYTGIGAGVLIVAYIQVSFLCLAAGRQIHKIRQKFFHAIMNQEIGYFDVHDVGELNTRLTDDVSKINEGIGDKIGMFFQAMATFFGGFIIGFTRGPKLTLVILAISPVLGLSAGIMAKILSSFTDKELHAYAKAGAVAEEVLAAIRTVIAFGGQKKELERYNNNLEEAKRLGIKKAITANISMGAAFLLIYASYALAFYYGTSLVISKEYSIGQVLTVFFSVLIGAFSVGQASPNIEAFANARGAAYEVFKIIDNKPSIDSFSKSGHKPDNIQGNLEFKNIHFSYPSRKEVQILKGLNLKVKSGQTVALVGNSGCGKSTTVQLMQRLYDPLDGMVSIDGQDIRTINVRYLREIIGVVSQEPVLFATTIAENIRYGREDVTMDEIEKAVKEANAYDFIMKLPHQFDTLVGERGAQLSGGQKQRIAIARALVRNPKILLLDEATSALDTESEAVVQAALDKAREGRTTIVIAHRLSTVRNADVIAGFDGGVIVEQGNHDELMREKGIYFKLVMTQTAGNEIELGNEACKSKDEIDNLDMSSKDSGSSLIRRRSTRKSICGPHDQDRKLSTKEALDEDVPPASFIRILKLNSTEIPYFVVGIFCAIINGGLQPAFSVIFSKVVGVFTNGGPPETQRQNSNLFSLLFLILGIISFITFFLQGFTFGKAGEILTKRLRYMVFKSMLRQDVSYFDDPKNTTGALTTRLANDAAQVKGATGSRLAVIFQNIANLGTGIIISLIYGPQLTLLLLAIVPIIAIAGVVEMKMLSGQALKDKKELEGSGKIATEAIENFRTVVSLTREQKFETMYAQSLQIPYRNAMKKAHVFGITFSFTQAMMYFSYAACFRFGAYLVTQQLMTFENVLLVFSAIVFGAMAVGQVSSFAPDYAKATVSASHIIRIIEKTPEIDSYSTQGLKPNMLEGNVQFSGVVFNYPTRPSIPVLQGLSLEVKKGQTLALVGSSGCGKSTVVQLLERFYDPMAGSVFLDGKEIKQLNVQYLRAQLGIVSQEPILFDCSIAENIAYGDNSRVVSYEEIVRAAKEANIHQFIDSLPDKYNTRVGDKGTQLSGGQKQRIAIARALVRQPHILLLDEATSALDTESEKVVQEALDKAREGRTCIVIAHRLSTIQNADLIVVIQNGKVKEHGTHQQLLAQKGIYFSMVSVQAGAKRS

| SMILES | EC50 [1] [nM] | EC50 [2, 6] [nM] | EC50 [3] [nM] | further results |
| --- | --- | --- | --- | --- |
| C=CC[C@@H]1/C=C(\C)C[C@H](C)C[C@H](OC)[C@H]2O[C@@](O)(C(=O)C(=O)N3CCCC[C@H]3C(=O)O[C@H](/C(C)=C/[C@@H]3CC[C@@H](O)[C@H](OC)C3)[C@H](C)[C@@H](O)CC1=O)[C@H](C)C[C@@H]2OC [FK506] | 160 ± 40 | 84 ± 30 | 140 ± 30 | – |
| Nc1ncnc2c1ncn2[C@@H]1O[C@H](COP(=O)(O)OP(=O)(O)OP(=O)(O)O)[C@@H](O)[C@H]1O [MgATP] | – | – | – | Km ([1]; read-out: Km(MgATP), WL-Pgp, in the presence of 30 μM verapamil, text says mM range): 0.65 ± 0.07 mM; Km ([2]; read-out: Km(MgATP), WT Pgp, in the presence of 30 μM verapamil, text says mM range): 0.75 ± 0.2 mM; Km [4]: 400 ± 70 µM |
| CC(C)[C@@H]1NC(=O)[C@H](C)OC(=O)[C@@H](C(C)C)NC(=O)[C@@H](C(C)C)OC(=O)[C@H](C(C)C)NC(=O)[C@H](C)OC(=O)[C@@H](C(C)C)NC(=O)[C@@H](C(C)C)OC(=O)[C@H](C(C)C)NC(=O)[C@H](C)OC(=O)[C@@H](C(C)C)NC(=O)[C@@H](C(C)C)OC1=O [Valinomycin, valinomycin] | 340 ± 90 | 330 ± 80 | 230 ± 30 | EC50 ([2]; 50% stimulation (EC50) of ATPase function, text summary across Wt Pgp, W(3Cyto) and WL-Pgp): ~300 nM |
| COc1cccc2c1C(=O)c1c(O)c3c(c(O)c1C2=O)C[C@@](O)(C(=O)CO)C[C@@H]3O[C@H]1C[C@H](N)[C@H](O)[C@H](C)O1 [doxorubicin] | – | – | – | Resistance to doxorubicin (relative to Wt Pgp) ([5]; yeast expressing mutant B (W(3Cyto))): 52 ± 14%; Resistance to doxorubicin (relative to Wt Pgp) ([5]; yeast expressing mutant C (eight TMD Trps replaced)): 43 ± 13% |
